The values below come from PubChem BioAssay (NCI).

Values joined by “and” are separate entries in the source; they are usually repeats but may differ in a detail not shown here. Equal entries are not always repeated.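 Assay format: 96-well plates, 48-hour exposure. Here, GI50 denotes the concentration required for 50% inhibition of growth. TGI denotes the concentration required for complete inhibition of growth.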 Some results are limits rather than exact numbers.

What all share (assay): NCI-60 cell line screen, 48 h
The test system of experiment [1] is OVCAR-3 ovarian.
Experiment [2] has as its system SF-295 CNS.
Experiment [3] concerns SK-MEL-2 melanoma.
The test system of experiment [4] is M14 melanoma.
Experiment [5] has as its system U251 CNS.
Experiment [6] concerns SR leukemia.
Experiment [7] has as its system HCT-15 colon.
Experiment [8] deals with IGROV1 ovarian.
For experiment [9], the system named is A498 renal.
For experiment [10], the system named is SNB-75 CNS.

Turning to `CC(=O)Oc1cc2c(OC(C)=O)c(-c3c(C)cc4c(C(C)C)c(OC(C)=O)c(OC(C)=O)cc4c3OC(C)=O)c(C)cc2c(C(C)C)c1OC(C)=O`, the GI50 is 4600 nM and 6150 nM and 8520 nM in experiment [1]; 8780 nM and 5990 nM and 10700 nM in experiment [2]; 7.83 µM and 10.8 µM in [3]; 6750 nM and 5890 nM and 8150 nM in experiment [4]; 4840 nM and 4850 nM and 9430 nM in experiment [5]; 28300 nM and 6930 nM in [6]. The GI50 was 4940 nM and 5210 nM and 7970 nM in experiment [7]; 16.2 µM and 3.27 µM and 25.8 µM in [8]; 4.91 µM and 4.51 µM and 11.5 µM in [9]; 2320 nM and 13700 nM and 16300 nM in [10]. Moreover, the TGI is 13.1 µM and 11.5 µM and 21 µM in experiment [1]; 26.7 µM and 12.5 µM and 30.6 µM in experiment [2]; 31.8 µM in [3]; 18.5 µM and 12.5 µM and 19.3 µM in experiment [4]; 9.38 µM and 24.7 µM and 35.7 µM in [5]; > 100 µM and 21.4 µM in experiment [6]. Also, the TGI in [7] was 9.98 µM and 10.5 µM and 18.2 µM; in experiment [8] it was 33.9 µM and 9.86 µM and 57.5 µM; in experiment [9], 10 µM and 11.7 µM and 37.3 µM; in experiment [10], 24.9 µM and > 52.7 µM and 62.8 µM.

Turning to `COc1cc(O)c2c(c1)C(=O)c1cc3c(c(O)c1C2=O)C(OC1OC(C)C(O)C(O)C1OC)C(OC)C(C)(O)C3=O` (centres undefined), the GI50 in [1] was 1380 nM; in experiment [2] it was 1530 nM; in experiment [3] it was 2.49 µM; in experiment [4] it was 1690 nM; in [5] it was 2560 nM; in [6] it was 2160 nM. For the same compound, the GI50 in experiment [7] is 2650 nM; in experiment [9], 1.58 µM; in experiment [10], 2840 nM. In addition, the TGI in experiment [1] is 5.83 µM and 2.04 µM; in experiment [2] it was 4.7 µM and 5.97 µM; in experiment [3], 6.52 µM and 9.1 µM; in experiment [4] it was 3.65 µM; in experiment [5], 13.2 µM and 11.8 µM; in experiment [6], > 100 µM. Also, the TGI is 12.2 µM and 7.35 µM in experiment [7]; 7.16 µM in experiment [8]; 3.13 µM and 5.31 µM in [9]; 15.7 µM and 10.1 µM in [10].

Regarding `CC/C(=C(/c1ccc(O)cc1)c1ccc(OCCN2CCCCC2)cc1)c1ccc(OC)cc1`, the GI50 in [1] is 1600 nM; in experiment [2], 1790 nM; in experiment [3] it was 2.04 µM; in experiment [4], 1730 nM; in [5], 1850 nM; in experiment [6], 215 nM. Besides, the GI50 was 1450 nM in [7], 2.5 µM in [8], 4.29 µM in experiment [9] and 10400 nM in [10]. For the same compound, the TGI in [1] amounted to 4.23 µM; in experiment [2], 3.62 µM; in experiment [3] it was 4.83 µM; in experiment [4], 3.38 µM; in experiment [5] it was 4.22 µM; in experiment [6], 0.649 µM. In addition, the TGI in experiment [7] stood at 5.46 µM; in experiment [8], 8.95 µM; in experiment [9] it was 17.6 µM; in [10], 23.3 µM.

On to `COc1ccc(OC)c(-c2cc(=O)c3c(OC)c(OC)c(OC)c(OC)c3o2)c1`, for which the TGI in experiment [1] was 75.3 µM; in experiment [2], 48.4 µM; in experiment [3], 49.3 µM; in [4], > 100 µM; in experiment [5] it was > 100 µM; in [6] it was > 100 µM. For the same compound, the TGI in experiment [7] is 77.5 µM; in experiment [8], > 100 µM; in [9], > 100 µM; in [10], > 100 µM.

In the case of `CCOC(=O)C(C)(C)C(O)C(C)C` (centres undefined), the TGI in experiment [1], in experiment [2], in experiment [3], in experiment [4], in [5] and in [6] was > 100 µM each time. For the same compound, the TGI in experiment [7], in experiment [8], in [9] and in experiment [10] was > 100 µM each time.

On to `CCN(CC)CCCC(C)N=c1cc(Nc2cc(=NC(C)CCCN(CC)CC)c3cc(OC)ccc3o2)oc2ccc(OC)cc12` (centres undefined), for which the GI50 is 1290 nM in experiment [1]; 1100 nM in experiment [2]; 1.35 µM in experiment [3]; 967 nM in [4]; 1150 nM in experiment [5]; 943 nM in experiment [6]. For the same compound, the GI50 is 851 nM in experiment [7], 1.89 µM in experiment [8], 1.15 µM in experiment [9] and 829 nM in experiment [10]. Also, the TGI in experiment [1] came to 2.92 µM; in experiment [2], 3.14 µM; in [3], 2.71 µM; in experiment [4] it was 1.79 µM; in experiment [5], 3.4 µM; in experiment [6] it was 3.02 µM. Moreover, the TGI in experiment [7] was determined as 2.33 µM; in [8], 8.72 µM; in [9] it was 7.83 µM; in [10] it was 2.93 µM.

Consider `COc1cccc2c1c(C1=C(c3cn(C)c4ccccc34)C(=O)NC1=O)cn2C`, for which the GI50 in [1] was > 25000 nM; in [2], > 25000 nM; in [3], > 25 µM; in experiment [4] it was > 25000 nM; in experiment [5], > 25000 nM; in [6], > 16600 nM. Further, the GI50 in experiment [7] was > 25000 nM; in experiment [8], > 25 µM; in experiment [9], > 25 µM; in [10], > 25000 nM. Besides, the TGI in [1], in experiment [2], in experiment [3], in [4], in [5] and in [6] was > 25 µM throughout. In addition, the TGI in experiment [7], in experiment [8], in [9] and in [10] was > 25 µM in each case.

On to `C/C(=C(\c1ccc(OCCN2CCCCCC2)cc1)c1ccc(OC(=O)Cc2ccccc2)cc1)c1ccc(Cl)cc1`, for which the GI50 in experiment [1] is 2750 nM; in experiment [2], 2560 nM; in [3], 3.98 µM; in [4], 1870 nM; in experiment [5], 2590 nM; in [6], 556 nM. Further, the GI50 in experiment [7] is 1790 nM; in experiment [8] it was 2.8 µM; in [9], 6.35 µM; in experiment [10], 2300 nM. Further, the TGI in [1] amounted to 5.22 µM; in [2], 4.97 µM; in experiment [3], 8.72 µM; in [4], 4.15 µM; in [5], 5.03 µM; in experiment [6], 6.87 µM. Further, the TGI in experiment [7] came to 4.26 µM; in experiment [8], 6.51 µM; in experiment [9], 16.7 µM; in experiment [10], 5.33 µM.
